Where “and” joins values, the source holds several entries; their conditions need not be identical. Equal values may be shown once.
Tests used:
[1] = Liquid, Diaphragm manometer
[2] = Boiling temperature at pressure P; settings: Liquid, Distillation

C[Si](C)(C)N[Si](C)(C)C [1,1,1,3,3,3-hexamethyldisilazane]
[1]
Settings	vapor or sublimation pressure [kPa]
290.8 K	1.51
290.9 K	1.54
292 K	1.68
293.5 K	1.73
301.1 K	2.71
301.5 K	2.68
311.4 K	4.25
312.4 K	4.36
320.2 K	5.93
321.2 K	6.6
329.7 K	9.72
330.9 K	10.21
331.8 K	10.3
340.1 K	14.79
341.1 K	15.35
349.8 K	20.68
352.7 K	23.41
360.3 K	30.3
360.5 K	31.34
370 K	42.85
371.8 K	45.32
382.2 K	59.76

C[Si](C)(C)NCc1ccccc1 [(benzylamino)trimethylsilane]
Settings	Boiling temperature at pressure P [°C]
[2], 2 kPa	98.00

C[Si](C)(C)N(c1ccccc1)[Si](C)(C)C [N,N-bis(trimethylsilyl)aniline]
Settings	Boiling temperature at pressure P [°C]	vapor or sublimation pressure
[1], 321.8 K	–	0.15 kPa
[1], 322.1 K	–	0.2 kPa
[1], 330.7 K	–	0.29 kPa
[1], 331.2 K	–	0.24 kPa
[1], 331.4 K	–	0.26 kPa
[1], 341.9 K	–	0.36 kPa
[1], 351.2 K	–	0.59 kPa and 0.61 kPa
[1], 351.4 K	–	0.59 kPa
[1], 361.1 K	–	0.96 kPa
[1], 361.2 K	–	1 kPa
[1], 371.2 K	–	1.56 kPa
[1], 380.7 K	–	2.34 kPa
[1], 381.2 K	–	2.32 kPa
[1], 390.9 K	–	3.54 kPa
[1], 400.5 K	–	5.22 kPa
[1], 400.7 K	–	5.19 kPa
[1], 400.9 K	–	5.65 kPa
[1], 410.7 K	–	7.51 kPa
[1], 411 K	–	7.35 kPa
[1], 421.4 K	–	10.96 kPa
[1], 421.5 K	–	10.91 kPa
[1], 421.9 K	–	10.9 kPa
[1], 431.7 K	–	15.13 kPa
[1], 441.2 K	–	20.51 kPa
[1], 441.6 K	–	20.37 kPa
[1], 451.2 K	–	27.3 kPa
[2], 0.267 kPa	60.00	–

C[Si](C)(C)Nc1ccccc1 [trimethyl(phenylamino)silane]
Settings	Boiling temperature at pressure P [°C]	vapor or sublimation pressure [kPa]
[1], 311.6 K	–	0.2
[1], 312.8 K	–	0.24
[1], 332.5 K	–	0.65
[1], 350.9 K	–	1.64
[1], 371.8 K	–	3.76
[1], 372.1 K	–	3.79
[1], 390 K	–	7.38
[1], 391.4 K	–	7.86
[1], 391.6 K	–	7.85
[1], 410.6 K	–	14.88
[1], 411.6 K	–	15.98
[1], 421.7 K	–	21.19
[1], 422.7 K	–	22.43
[1], 431.8 K	–	28.53
[1], 432.7 K	–	30.61
[1], 446.1 K	–	43.07
[1], 452.1 K	–	52.87
[1], 455.2 K	–	55.6
[2], 0.4 kPa	56.00	–

C[Si](C)(C)c1ccccc1 [trimethylphenylsilane]
Settings	Boiling temperature at pressure P [°C]	vapor or sublimation pressure [kPa]
[1], 296.7 K	–	0.33
[1], 297.7 K	–	0.29
[1], 298.8 K	–	0.31
[1], 322.2 K	–	1.14
[1], 322.7 K	–	1.28
[1], 333.2 K	–	2.02
[1], 343.7 K	–	3.24
[1], 352.2 K	–	4.73
[1], 352.8 K	–	4.91
[1], 371.9 K	–	10.63
[1], 372.2 K	–	11.04
[1], 373.2 K	–	10.82
[1], 382.9 K	–	15.75
[1], 391 K	–	21.76
[1], 392.1 K	–	21.75
[1], 392.4 K	–	22.02
[1], 401.1 K	–	29.35
[2], 1.866 kPa	56.00	–
